US20250230165A1, “HETEROCYCLIC COMPOUNDS FOR USE IN THE TREATMENT OF CANCER” (ARTIOS PHARMA LIMITED, priority 2021, published 2025)

Target: T1, Human Polθ polymerase domain (aa1820-2590) (Homo sapiens, UniProt O75417)
T1 construct: Human Polθ polymerase domain (aa1820-2590) was expressed in E. coli; made in house; host or cells: E. coli
T1 sequence (O75417 1820-2590): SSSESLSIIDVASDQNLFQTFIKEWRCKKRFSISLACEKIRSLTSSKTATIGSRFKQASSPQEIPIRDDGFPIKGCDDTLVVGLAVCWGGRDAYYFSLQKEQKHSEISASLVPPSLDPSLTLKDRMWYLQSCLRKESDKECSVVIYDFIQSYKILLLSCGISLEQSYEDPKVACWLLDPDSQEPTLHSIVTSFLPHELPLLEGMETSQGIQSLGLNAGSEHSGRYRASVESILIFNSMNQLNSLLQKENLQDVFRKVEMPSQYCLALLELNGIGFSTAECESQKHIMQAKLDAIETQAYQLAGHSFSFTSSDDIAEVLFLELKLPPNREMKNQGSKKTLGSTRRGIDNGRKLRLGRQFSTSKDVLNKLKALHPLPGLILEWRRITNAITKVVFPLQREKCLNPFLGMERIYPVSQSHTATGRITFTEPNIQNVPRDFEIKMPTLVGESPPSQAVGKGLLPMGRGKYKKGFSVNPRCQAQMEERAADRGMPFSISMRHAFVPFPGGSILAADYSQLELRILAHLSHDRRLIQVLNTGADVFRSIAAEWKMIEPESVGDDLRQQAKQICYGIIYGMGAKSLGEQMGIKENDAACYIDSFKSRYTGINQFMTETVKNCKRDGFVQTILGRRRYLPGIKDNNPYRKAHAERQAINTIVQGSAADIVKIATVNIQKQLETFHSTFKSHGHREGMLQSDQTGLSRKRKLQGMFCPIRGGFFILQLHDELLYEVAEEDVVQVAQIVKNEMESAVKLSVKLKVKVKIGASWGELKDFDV
Test: Polθ Polymerase Domain Kinact/KI Assay (PicoGreen)
Format: biochemical
Conditions: 0.8 nM Polθ, 100 nM DNA substrate, kobs vs [I] fit for 2-step covalent inhibitor
In short: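 Covalent inhibitors were tested against E. coli-expressed enzyme (0.8 nM final) with 100 nM annealed DNA substrate and […] in Tris pH 7.5 buffer, 1% DMSO. Reactions were EDTA-quenched over a 0–60 min time course and product DNA detected by PicoGreen fluorescence.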

## C=C(CN(C)C)C(=O)N[C@@H]1CCn2cc(CN3C[C@H]4CC(=O)N(c5cc(C(F)(F)F)cc(C)n5)[C@@H]4C(=O)N(C)c4cccc(C)c43)nc2C1 (racemic) [Example 330b, N-((R/S)-2-(((3aR, 11aS)-6,10-dimethyl-1-(6-methyl-4-(trifluoromethyl)pyr-idin-2-yl)-2,11-dioxo-1,2,3,3a,4,10,11,11a-octahydro-5H-benzo [b]pyrrolo[2,3-f][1,4]diazocin-5-yl)meth-yl)-5,6,7,8-tetrahydro-imidazo[1,2-a]pyridin-7-yl)-2-((dimethyl-amino)methyl)acryl-amide]
  Kinact/Kl: 1.15e+06 M⁻¹ s⁻¹

## C=CC(=O)N1CC(O[C@H]2CN(CCN3C[C@H]4CC(=O)N(c5cc(C(F)(F)F)cc(C)n5)[C@@H]4C(=O)N(C)c4cccc(F)c43)C[C@@H]2O)C1 (relative stereo) [Example 11, (3aR,11aS)-5-(2-((rel-trans)-3-((1-acryloylazetidin-3-yl)oxy)-4-hydroxypyrrolidin-1-yl)ethyl)-6-fluoro-10-methyl-1-(6-methyl-4-(trifluoromethyl)pyridin-2-yl)-1,3a,4,5,10,11a-hexahydro-2H-benzo[b]pyrrolo[2,3-f][1,4]diazocine-2,11(3H)-dione]
  Kinact/Kl: 400000 M⁻¹ s⁻¹

## C=CC(=O)N1C[C@H]2CCN(CCN3C[C@H]4CC(=O)N(c5cc(C(F)(F)F)cc(C)n5)[C@@H]4C(=O)N(C)c4cccc(F)c43)C[C@H]2C1 (relative stereo) [Example 25a, (3aR,11aS)-5-(2-((3aS/R,7aS/R)-2-acryloyloctahydro-5H-pyrrolo[3,4-c]pyridin-5-yl)ethyl)-6-fluoro-10-methyl-1-(6-methyl-4-(trifluoromethyl)pyridin-2-yl)-1,3a,4,5,10,11a-hexahydro-2H-benzo[b]pyrrolo[2,3-f][1,4]diazocine-2, 11(3H)-dione]
  Kinact/Kl: 200000 M⁻¹ s⁻¹

## C=CC(=O)N1C[C@H]2CN(CCN3C[C@H]4CC(=O)N(c5cc(C(F)(F)F)cc(C)n5)[C@@H]4C(=O)N(C)c4cccc(F)c43)CCN2[C@H](C)C1 (relative stereo) [Example 64a, (3aR,11aS)-5-(2-((6R/S,9aR/S)-8-acryloyl-6-methyloctahydro-2H-pyrazino[1,2-a]pyrazin-2-yl)ethyl)-6-fluoro-10-methyl-1-(6-methyl-4-(trifluoromethyl)pyridin-2-yl)-1,3a,4,5,10,11a-hexahydro-2H-benzo[b]pyrrolo[2,3-f][1,4]diazocine-2,11(3H)-dione]
  Kinact/Kl: 2.06e+06 M⁻¹ s⁻¹

## C=CC(=O)N1CC[C@@H](O)[C@H](N(C)CCN2C[C@H]3CC(=O)N(c4cc(C(F)(F)F)cc(C)n4)[C@@H]3C(=O)N(C)c3cccc(Cl)c32)C1 (relative stereo) [Example 113, (3aR,11aS)-5-(2-(((rel-trans)-1-acryloyl-4-hydroxypiperidin-3-yl)(methyl)amino)ethyl)-6-chloro-10-methyl-1-(6-methyl-4-(trifluoromethyl)pyridin-2-yl)-1,3a,4,5,10,11a-hexahydro-2H-benzo[b]pyrrolo[2,3-f][1,4]diazocine-2,11(3H)-dione]
  Kinact/Kl: 1.72e+06 M⁻¹ s⁻¹

## C=CC(=O)N1CC2(C1)C(C)N(CCN1C[C@H]3CC(=O)N(c4cc(C(F)(F)F)cc(C)n4)[C@@H]3C(=O)N(C)c3cccc(F)c31)C[C@H]1COCCN12 (single isomer, unassigned) [Example 7]
  Kinact/Kl: 410000 M⁻¹ s⁻¹

## C=CC(=O)N1CC2(C1)[C@H](C)N(CCN1C[C@H]3CC(=O)N(c4cc(C(F)(F)F)cc(C)n4)[C@@H]3C(=O)N(C)c3cccc(F)c31)C[C@H]1COCCN12 (single isomer, unassigned) [Example 8]
  Kinact/Kl: 2e+06 M⁻¹ s⁻¹

## C=CC(=O)N1C[C@@H]2CN(CCN3C[C@H]4CC(=O)N(c5cc(C(F)(F)F)cc(C)n5)[C@@H]4C(=O)N(C)c4cccc(F)c43)CCN2C[C@@H]1C (single isomer, unassigned) [Example 9]
  Kinact/Kl: 600000 M⁻¹ s⁻¹

## C=CC(=O)N1CC2CN(CCN3C[C@H]4CC(=O)N(c5cc(C(F)(F)F)cc(C)n5)[C@@H]4C(=O)N(C)c4cccc(F)c43)CCN2C[C@@H]1C (single isomer, unassigned) [Example 10]
  Kinact/Kl: 210000 M⁻¹ s⁻¹

## C=CC(=O)N1CCC12CCN(CCN1C[C@H]3CC(=O)N(c4cc(C(F)(F)F)cc(C)n4)[C@@H]3C(=O)N(C)c3cccc(F)c31)C2 (single isomer, unassigned) [Example 21b]
  Kinact/Kl: 140000 M⁻¹ s⁻¹

## C=CC(=O)N1CC(N2CCO[C@H]3CN(CCN4C[C@H]5CC(=O)N(c6cc(C(F)(F)F)cc(C)n6)[C@@H]5C(=O)N(C)c5cccc(F)c54)C[C@@H]32)C1 (single isomer, unassigned) [Example 22a]
  Kinact/Kl: 170000 M⁻¹ s⁻¹

## C=CC(=O)N1CC(N2CCO[C@@H]3CN(CCN4C[C@H]5CC(=O)N(c6cc(C(F)(F)F)cc(C)n6)[C@@H]5C(=O)N(C)c5cccc(F)c54)C[C@H]32)C1 (single isomer, unassigned) [Example 22b]
  Kinact/Kl: 460000 M⁻¹ s⁻¹

## C=CC(=O)N1CCN2CCN(CCN3C[C@H]4CC(=O)N(c5cc(C(F)(F)F)cc(C)n5)[C@@H]4C(=O)N(C)c4cccc(F)c43)CC2C1 (single isomer, unassigned) [Example 23b]
  Kinact/Kl: 540000 M⁻¹ s⁻¹

## C=CC(=O)N1CC2(CN(CCN3C[C@H]4CC(=O)N(c5cc(C(F)(F)F)cc(C)n5)[C@@H]4C(=O)N(C)c4cccc(F)c43)CC3COCCN32)C1 (single isomer, unassigned) [Example 24a]
  Kinact/Kl: 1.63e+06 M⁻¹ s⁻¹

## C=CC(=O)N1C[C@H]2CN(CCN3C[C@H]4CC(=O)N(c5cc(C(F)(F)F)cc(C)n5)[C@@H]4C(=O)N(C)c4cccc(F)c43)CC[C@H]2C1 (single isomer, unassigned) [Example 25b]
  Kinact/Kl: 250000 M⁻¹ s⁻¹

## C=CC(=O)N1CC2(CN(CCN3C[C@H]4CC(=O)N(c5cc(C(F)(F)F)cc(C)n5)[C@@H]4C(=O)N(C)c4cccc(Cl)c43)CC3COCCN32)C1 (single isomer, unassigned) [Example 26a]
  Kinact/Kl: 690000 M⁻¹ s⁻¹

## C=CC(=O)N1CC2(C1)NCCN(CCN1C[C@H]3CC(=O)N(c4cc(C(F)(F)F)cc(C)n4)[C@@H]3C(=O)N(C)c3cccc(F)c31)C2C (single isomer, unassigned) [Example 34b]
  Kinact/Kl: 1.69e+06 M⁻¹ s⁻¹

## C=CC(=O)N1C[C@H]2CN(CCN3C[C@H]4CC(=O)N(c5cc(C(F)(F)F)cc(C)n5)[C@@H]4C(=O)N(C)c4cccc(F)c43)CCN2C(=O)[C@H]1C (single isomer, unassigned) [Example 58]
  Kinact/Kl: 500000 M⁻¹ s⁻¹

## C=CC(=O)N1C[C@@H]2CN(CCN3C[C@H]4CC(=O)N(c5cc(C(F)(F)F)cc(C)n5)[C@@H]4C(=O)N(C)c4cccc(F)c43)CCN2C(=O)[C@@H]1C (single isomer, unassigned) [Example 59]
  Kinact/Kl: 1.08e+06 M⁻¹ s⁻¹

## C=CC(=O)N1C[C@@H]2CN(CCN3C[C@H]4CC(=O)N(c5cc(C(F)(F)F)cc(C)n5)[C@@H]4C(=O)N(C)c4cccc(F)c43)CCN2C(=O)[C@H]1C (single isomer, unassigned) [Example 60]
  Kinact/Kl: 300000 M⁻¹ s⁻¹

## C=CC(=O)N1C[C@H]2CN(CCN3C[C@H]4CC(=O)N(c5cc(C(F)(F)F)cc(C)n5)[C@@H]4C(=O)N(C)c4cccc(F)c43)CCN2C(=O)[C@@H]1C (single isomer, unassigned) [Example 61]
  Kinact/Kl: 500000 M⁻¹ s⁻¹

## C=CC(=O)N1CC(N(C)CC(O)CN2C[C@H]3CC(=O)N(c4cc(C(F)(F)F)cc(C)n4)[C@@H]3C(=O)N(C)c3cccc(Cl)c32)C1 (single isomer, unassigned) [Example 69]
  Kinact/Kl: 1.09e+06 M⁻¹ s⁻¹

## C=CC(=O)N1CCN2C(=O)[C@H](C)N(CCN3C[C@H]4CC(=O)N(c5cc(C(F)(F)F)cc(C)n5)[C@@H]4C(=O)N(C)c4cccc(F)c43)C[C@@H]2C1 (single isomer, unassigned) [Example 108]
  Kinact/Kl: 2.35e+06 M⁻¹ s⁻¹

## C=CC(=O)N1CC2(CN(CCN3C[C@H]4CC(=O)N(c5cc(C(F)(F)F)cc(C)n5)[C@@H]4C(=O)N(C)c4cccc(Cl)c43)CC2C#N)C1 (single isomer, unassigned) [Example 117a]
  Kinact/Kl: 1.89e+06 M⁻¹ s⁻¹

## C=CC(=O)N1CC2(CN(CCN3C[C@H]4CC(=O)N(c5cc(C(F)(F)F)cc(C)n5)[C@@H]4C(=O)N(C)c4cccc(C)c43)CC2C#N)C1 (single isomer, unassigned) [Example 118a]
  Kinact/Kl: 3e+06 M⁻¹ s⁻¹

## C=CC(=O)N1CC2(CN(CCN3C[C@H]4CC(=O)N(c5cc(C(F)(F)F)cc(C)n5)[C@@H]4C(=O)N(C)c4cccc(C)c43)CC2(C)C#N)C1 (single isomer, unassigned) [Example 119a]
  Kinact/Kl: 4.57e+06 M⁻¹ s⁻¹

## C=CC(=O)N1CCN2C[C@@H](CN3C[C@H]4CC(=O)N(c5cc(C(F)(F)F)cc(C)n5)[C@@H]4C(=O)N(C)c4cccc(F)c43)N(C)C[C@H]2C1 (single isomer, unassigned) [Example 140a]
  Kinact/Kl: 22000 M⁻¹ s⁻¹
